# Experimental data taken from patent US9713613B2, “Methods and compositions for the treatment of cancer and related hyperproliferative disorders” (priority 2007, dated 2017).
# “Also recorded” adds a separate entry of the source.
# System: ob/ob mice
# Experiment: ob/ob mice, four weeks daily ip treatment
# Type: in vivo
# Method: The study employed 4-5 week old male ob/ob mice of average weight of about 23 g/mouse. Fatostatin A (30 mg/kg/day) was delivered intraperitoneally daily, and body weight and food intake were measured. […] At the end of first week of treatment ob control mice injected with DMSO gained on average of 4.82 g/mouse (from 23.58±0.62 to 28.40±1.45), whereas the fatostatin treated group gained about 3.37 g/mouse (23.08±1.53 to 26.45±1.2 g/mouse), (p=0.03). After 28 days of treatment the fatostatin A treated group weighed about 12% less than the controls weeks (32.1±1.4 compared to 36.2±2.2 g/mouse […]) (P=0.02). The accumulative food intake was similar in both groups FIG. 8C).
# Four- to 5-week old homozygous male obese (ob/ob) mice (C57BL/6J, The Jackson Laboratory, Bar Harbor, Me.) were housed under controlled conditions (12-hr light/dark cycle; 25° C.). The animals were housed 5 per cage and had ad libitum access to standard laboratory chow (Purina Mills, Richmond Ind.) and water for one week after their arrival. On first day of the experiment and every day thereafter the weight of the mice and the amount of the food consumed were measured. The weight of mice and food remaining were measured daily between 3-5 p.m. before the ip injection of fatostatin A (30 mg/kg; 150 μL). The administration of Fatostatin A or 10% DMSO in PBS to control groups (n=5) continued daily for four weeks till the end of the study.
# After 28 days of daily injection of fatostatin A mice were fasted overnight and blood was withdrawn and Whole blood glucose and 3-hydroxybutyrate were measured with a Glucometer Precision Xtra (Abbott). For determination of serum constituents. Glucose, triglyceride and cholesterol measurements were done by the Comparative Pathology Laboratory (Baylor College of Medicine). Serum non-esterified fatty acids (NEFA) were measured by using NEFA C kit (Wako Chemicals, Richmond, Va.).
# Mice were sacrificed and weights of livers, and Epididymal fat pads were determined. Frozen sections of Liver slices from individual animals were stained with Oil Red O to visualize the fat droplets (TG) in liver slices as described earlier (Abu-Elheiga et al., 2001). The remaining liver tissues were frozen in liquid nitrogen and kept at −80° C. for further analysis.
# Liver triglyceride and cholesterol contents were carried out as described in the reference (Chandler, et al., 2003) using Cholesterol E Kit (Wako) and Infinity Triglyceride Kit (Thermo Electron, Melbourne, Australia), adapted for colorimetric analysis in 96-well plate format.
# A portion of the frozen liver was ground to powder in liquid nitrogen. The powdered tissues were suspended in 10 ml of PBS containing 0.1 mM PMSF, 5 mM benzamidine, and 5 mg/ml protease inhibitor cocktail (Roche), and homogenized using Polytron (3×30 Sec, at high speed) and sonicated briefly to degrade DNA. The extracts were clarified by centrifugation at 16,000×g for 20 min. Protein concentrations in the supernatant were determined, and subjected to western blot analysis using commercially available antibodies against the following enzymes: FAS (BD Biosciences), citrate lyase SCD1, FADS1, ACC and phospho-ACC antibodies. The proteins were visualized using Amersham ECL Plus™ Western Blotting Detection Reagents. The intensity of the specific bands of proteins of interest were scanned and normalized against beta-actin for quantifications. FAS and ACC activities from the liver extracts were determined as described earlier (Mao et al., 2006).
# Total RNA was prepared from mouse tissues using TRIzol reagent (Invitrogen). Equal amounts of RNA from 5 mice were pooled and treated with DNase I (Turbo DNA-free, Ambion, Inc.). First stranded cDNA was synthesized from 2 μg of DNase I-treated total RNA with random hexamer primer using Superscript II RNase H-reverse transcriptase (Invitrogen). […]
# [1] = western blot, normalized to actin
compound,measurement,setting,value
"CCCc1cc(-c2nc(-c3ccc(C)cc3)cs2)ccn1 [Compound 1, 2-propyl-4-(4-p-tolylthiazol-2-yl)pyridine]",toxicity during the treatment,"30 mg/kg ip daily, four weeks",no obvious toxicity
same,body weight gain at the end of first week,"30 mg/kg/day ip, control 4.82",about 3.37 g/mouse
same,body weight at the end of first week,"30 mg/kg/day ip, from 23.08±1.53",26.45±1.2 g/mouse
same,decrease in serum HDL,28 days,about 22%
same,decrease in serum LDL,28 days,about 35%
same,increase of VLDL,28 days,about 50%
same,serum non esterified free fatty acids (NEFA) higher than controls,28 days,about 70%
same,serum triglycerides (TG) increase compared to controls,28 days,about 30%
same,ketone bodies (hydroxy butyrate) increase compared to controls,"28 days, blood, listed as fatostatin A",increased about seven fold; also recorded: seven fold increase
same,serum glucose,"28 days, fasted mice, control 429.4±87",153.2 ± 30.5 mg/dL
same,serum glucose lower than controls,"28 days, fasted mice, listed as fatostatin",~70%
same,serum glucose lower than controls,"28 days, fasted mice, listed as fatostatin A",about 70%
same,ketone bodies (hydroxy butyrate),"28 days, control 0.5±0.37",3.62 ± 1.41 mg/dL
same,serum NEFA,"28 days, control 0.7±0.2",1.93±0.26 mEq/l
same,serum LDL,"28 days, control 48±8",31±3
same,serum triglycerides (TG),"28 days, control 79±12",115±11
same,serum HDL,"28 days, control 183±12",144±11
same,serum total cholesterol,"28 days, control 219±18",183 ± 16 mg/dL
same,body weight less than controls,after 28 days of treatment,about 12%
same,body weight,"after 28 days of treatment, control 36.2±2.2",32.1±1.4 g/mouse
same,food intake,"average over 28 days, control 5.9±1.4",5.4±1.5 g/mouse·day
same,VLDL,"calculated based on TG levels, control 15.8±2.4",23.1 ± 2.3 mg/dL
same,average daily food intake,control 5.9+1.4,5.4+1.5 g/mouse/d
same,average weight of epididymal fat pads less than controls,four weeks,about 20%
same,decrease of ACC activity in liver extracts,four weeks,about 40%
same,reduction of FAS activity in liver extracts,four weeks,more than 70%
same,reduction of TG levels in livers,four weeks,about 65%
same,reduction of cholesterol levels in liver,four weeks,more than 20%
same,average weight of livers,"four weeks, control 2.34±0.15",1.59±0.2
same,cholesterol levels in liver,"four weeks, control 3.6±0.1",2.8±0.5
same,average weight of epididymal fat pads,"four weeks, control 3.6±0.2",2.7±0.1
same,ACC activity in liver extracts,"four weeks, control 5.55±0.57",3.44±0.44 n mol/min·mg
same,FAS activity in liver extracts,"four weeks, control 22.6±1.37",8.64±1.91 n mol/min·mg
same,TG levels in livers,"four weeks, control 38.7±6.0",14.8±3.7 mg/gram liver
same,average weight of livers less than controls,"four weeks, listed as fatostatin",~32%
same,average weight of livers less than controls,"four weeks, listed as fatostatin A",about 32%
same,reduction of PPAR γ mRNA level in liver,real time PCR,about 40%
same,"reduction in the mRNA levels of ACC1, FAS and SCD1 in liver","real time PCR, normalized to actin",about 80%
same,protein level of FADS 1 or Δ5 Desaturase in liver,western blot,did not change
same,reduction of ACL protein level in liver extracts,[1],about 70%
same,reduction of SCD1 protein level in liver extracts,[1],about 50%
